Data set [1] deals with scratched monolayers of HaCaT cells (human keratinocyte cell line). As to the kind of experiment: In vitro wound healing model (scratched HaCaT monolayer). Conditions: AG 20 μM, 15 min pre-treatment, no bacterial extract, 20 hours. In kind it is cell-based. The protocol: The inventor has evaluated the ability of extracts obtained from selected bacterial strains to influence wound re-epithelialization using an in vitro artificial wound model. The rate of closure of the scratched monolayer in untreated cells and in cells treated with each bacterial extract at the concentration of 50 μg/ml is shown and evaluated through the observation of the repopulation of the area between the wound edges at different time points after the wound generation. In order to quantitatively analyze the effects of the bacterial extracts on the closure of the wound area, images obtained by using an inverted phase contrast microscope at 0, 20, 28 and 45 hours after the scratch were acquired and expressed as a percentage of closure by using an automatical calculation system to evaluate the percentage of area occupied by said cells with respect to the total surface area analyzed. […] The results expressed as percentages of relative re-epithelialization (mean±SEM from three independent experiments conducted in duplicate) as well as the images representing microscopic observations of scratched monolayers are shown in FIGS. 1A and 1B respectively.
The HaCaT cell line of spontaneously immortalized human keratinocytes was purchased from Cell Lines Service GmbH (Eppelheim, Germany). […] Untreated cells were also analysed and used as negative controls. […]

Data set [2] relates to iNOS. Put plainly: Nitrite levels assay (Griess) in culture medium of scratched HaCaT monolayers. In kind it is cell-based, human. Conditions: AG 20 μM, 15 min pre-treatment, no bacterial extract, 28 hours. On the procedure: The scratched monolayers of HaCaT cells were incubated with or without AG at the concentration of 20 μM for 15 minutes before treatment with the bacterial extracts. Nitrite levels in the culture medium were analyzed by Griess reagent after 28 hours. Data shown are expressed as the mean±SEM of three independent experiments conducted in duplicate. The two-way analysis of variance followed by the Bonferroni's post-hoc test was used to assess the presence of statistically significant differences between the data groups: *P<0.05, **P<0.01, ****P<0.0001 with respect to the control (untreated). #P<0.05, ##P<0.01, ###P<0.001, ####P<0.0001 with respect to each corresponding culture without AG. The ability of bacterial extracts to regulate iNOS was further analyzed by measuring the nitrite levels in supernatants of scratched monolayers of HaCaT cells pre-treated with AG, a selective iNOS inhibitor, or not treated with such inhibitor (known from T. P. Misko et al., Eur. J. Pharmacol, 1993, 233:119-125). NO production was indirectly evaluated with the use of the Griess method by measuring nitrite levels using nitrate reductase and the Griess reaction based on a colorimetric assay. […] Absorbance was measured by spectrophotometric reading at 550 nm using a microplate reader (Bio-Rad Hercules, California, USA). […]
(Griess reagent forms a coloured azo dye with nitrite.)

A short description of data set [3]: Clinical course of diabetes ulcers and toe amputation wound in a patient (Example 1). In kind it is in vivo, human. Conditions: 500 mg orally every 12 hours, four weeks.
Text: The probiotic formulation was a composition comprising Lactobacillus plantarum NCIMB 43029, Lactobacillus acidophilus NCIMB 43030 and the known Streptococcus thermophilus (SEQ ID NO: 10). 0.5 g of composition was applied once daily.
The use of the probiotic formulation was discontinued on day 60, 24 days after treatment.
Data set [4] deals with HaCaT keratinocytes. Put plainly: Trypan blue dye exclusion test of HaCaT viability. In kind it is cell-based, human. Conditions: 0.1%; positive control; P≤0.01. The protocol:
The HaCaT cell line of spontaneously immortalized human keratinocytes was purchased from Cell Lines Service GmbH (Eppelheim, Germany). HaCaT cells were cultured in DMEM supplemented with 10% (v/v) fetal calf serum (FCS), 2 mM L-glutamine, 100 U/ml penicillin and 100 μg/ml streptomycin (Euro Clone, West York, UK). The culture conditions were kept constantly at 37° C. in a humidified atmosphere with 5% CO2. After reaching 80% confluency, cells were seeded, as specified below, in 6- or 12-well plates for sterile cell cultures (Becton Dickinson, San José, CA) at the concentration of 18,000 cells/cm^2. Non-adherent cells were removed by gentle washing in phosphate buffer (PBS, pH=7.4). Cells grown in a 12-well plate were collected at 20, 28 and 45 hours and live cells were counted with the trypan blue dye exclusion test (Euro Clone, West York, UK). […] Untreated cells were also analysed and used as negative controls. The cells were transferred to a Bürker counting chamber and counted under a microscope Eclipse 50i (Nikon Corporation, Japan). For the selection of suitable concentrations of bacterial extract expressed as μg protein/ml, the viability of the HaCaT keratinocytes was analyzed using the trypan blue exclusion test. […]

For `N=C(N)NN` [AG, aminoguanidine], the “re-epithelialization (repairing) of the control monolayer” value in data set [1] was “strong effect on the physiological repairing of the control monolayer”. In addition, the “nitrite production induced by scratching the control monolayer” value in data set [2] is on record as “significantly prevented the increase in nitrite production”.
On to `CC1(C)S[C@@H]2[C@H](NC(=O)[C@H](N)c3ccc(O)cc3)C(=O)N2[C@H]1C(=O)O` [amoxicillin], for which the “clinical picture of the wounds (wound exudate)” value in data set [3] is on record as “worsening clinical picture”.
Take Triton X: the cell viability entry in data set [4] is recorded as “significant reduction”.

The values are drawn from patent US12544413B2, “Composition with antibacterial and re-epithelializing action including probiotics” (EOS2021 S.R.L, priority 2019, dated 2026).
